In ChEMBL document CHEMBL5052840, “Pharmaceutical compounds and therapeutic methods” (2020):
Activity calls are given as the source filed them. The rule behind the calls is not given here.

Assays:
[1] = Ratio of drug level in male C57BL/6 mouse brain to plasma at 10 mg/kg, po administered as single dose measured at 3 hrs measured by LC/MS-MS analysis; format: ADME, organism-based; conditions: read-out: BPR
[2] = Plasma concentration in male C57BL/6 mouse at 10 mg/kg, po administered as single dose measured at 6 hrs measured by LC/MS-MS analysis; format: ADME, organism-based
[3] = Ratio of drug level in male C57BL/6 mouse brain to plasma at 10 mg/kg, po administered as single dose measured at 1 hr measured by LC/MS-MS analysis; format: ADME, organism-based; conditions: read-out: BPR
[4] = Brain concentration in male C57BL/6 mouse at 10 mg/kg, iv administered as single dose measured at 0.35 hrs measured by LC/MS-MS analysis; format: ADME, organism-based; conditions: read-out: Drug uptake
[5] = molecular target: T1, Polycomb complex protein BMI-1 (Homo sapiens) (UniProt P35226); assay: Inhibition of BMI1 in human Glioblastoma cell 3D spheres at 7 to 10 nM assessed as reduction in STAT1 levels measured by Western blotting method; format: cell-based; conditions: Glioblastoma cell line, dose 7-10 nM
T1 sequence (whole entry): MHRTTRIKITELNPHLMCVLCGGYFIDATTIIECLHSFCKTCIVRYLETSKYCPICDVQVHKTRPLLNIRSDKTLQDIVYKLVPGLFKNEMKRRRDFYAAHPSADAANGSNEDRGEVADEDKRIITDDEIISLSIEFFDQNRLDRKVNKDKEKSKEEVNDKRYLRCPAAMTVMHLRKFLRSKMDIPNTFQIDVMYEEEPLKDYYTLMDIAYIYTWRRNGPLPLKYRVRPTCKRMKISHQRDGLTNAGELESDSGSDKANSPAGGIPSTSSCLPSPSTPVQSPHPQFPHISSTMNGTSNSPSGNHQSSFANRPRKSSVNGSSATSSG

[6] = Brain concentration in male C57BL/6 mouse at 10 mg/kg, ip administered as single dose measured at 0.35 hrs measured by LC/MS-MS analysis; format: ADME, organism-based; conditions: read-out: Drug uptake
[7] = Ratio of drug level in male C57BL/6 mouse brain to plasma at 10 mg/kg, ip administered as single dose measured at 1 hr measured by LC/MS-MS analysis; format: ADME, organism-based; conditions: read-out: BPR
[8] = Brain concentration in male C57BL/6 mouse at 10 mg/kg, ip administered as single dose measured at 12 hrs measured by LC/MS-MS analysis; format: ADME, organism-based; conditions: read-out: Drug uptake
[9] = Brain concentration in male C57BL/6 mouse at 10 mg/kg, ip administered as single dose measured at 24 hrs measured by LC/MS-MS analysis; format: ADME, organism-based; conditions: read-out: Drug uptake
[10] = Plasma concentration in male C57BL/6 mouse at 10 mg/kg, po administered as single dose measured at 0.08 hrs measured by LC/MS-MS analysis; format: ADME, organism-based
[11] = Brain concentration in male C57BL/6 mouse at 10 mg/kg, ip administered as single dose measured at 1 hr measured by LC/MS-MS analysis; format: ADME, organism-based; conditions: read-out: Drug uptake
[12] = Ratio of drug level in male C57BL/6 mouse brain to plasma at 10 mg/kg, po administered as single dose measured at 0.35 hrs measured by LC/MS-MS analysis; format: ADME, organism-based; conditions: read-out: BPR

Kp at 3 h [1]: 4.34
concentration at 6 h [2]: 2.5 ng/mL
Kp at 1 h [3]: 2.01
concentration at 0.35 h [4]: 514 ng/g
inhibition [5]: Active
concentration at 0.35 h [6]: 680 ng/g
Kp at 1 h [7]: 2.78
concentration at 12 h [8]: 159 ng/g
concentration at 24 h [9]: 6.21 ng/g
concentration at 0.08 h [10]: 175 ng/mL
concentration at 1 h [11]: 159 ng/g
Kp at 0.35 h [12]: 1.6
Compound: Cc1nc2ccccn2c1-c1csc(Nc2ccc3c(c2)OC(F)(F)O3)n1.Cl
